Molecules are shown by their SMILES.

One series has as its system iNOS, COX2. Description: iNOS and COX2 mRNA (PCR) in LPS-treated BV2 cells. The series is classed as cell-based. Conditions: BV2 cells treated with LPS, FIGS. 3A-3C. Here is the method:
(§1) In order to investigate the molecular biological mechanism of the anti-inflammatory effect of the single components derived from the licorice extract, the following test was conducted. BV2 cells were treated with an inflammation inducer LPS, after which the extent of inhibition of the increase in proinflammatory cytokines, iNOS ([…]), COX2 (cyclooxygenase-2), etc. by three components (glycyrrhizin, liquiritin and liquiritigenin) was measured based on changes in mRNA using a PCR technique.

The subject of series [1] is HepG2 cells with hepatotoxicity induced by t-BHP. Description: Inhibition of t-BHP-induced hepatotoxicity in cultured hepatocytes. Conditions: HepG2, FIG. 6.
Series [2] relates to cultured hepatocytes (HepG2). To be noted: human, 100 μM.
The test system of the next series is TNF-α, IL-1β, IL-6. Description: Inflammation-related cytokine mRNA (PCR) in LPS-treated BV2 cells. The series is classed as cell-based. Conditions: BV2 cells treated with LPS, FIGS. 4A-4C. The procedure: as §1
For series [3], the system named is NO production by LPS in BV2 cells. Put plainly: Inhibition of NO production by LPS in BV2 cells. The series is classed as cell-based. Conditions: BV2 cells, 10, 20 and 50 μM, after 24 hr, FIG. 2. The procedure: In order to evaluate the anti-inflammatory effects of single components derived from the licorice extract, BV2 cells were treated with glycyrrhizin, liquiritin and liquiritigenin at concentrations of 10, 20 and 50 μM, after which the inhibition of NO production by LPS (Lipopolysaccharide) was measured after 24 hr.

Series [4] has as its system cultured hepatocytes (HepG2). Put plainly: Cell viability of HepG2 cells treated with single components or t-BHP. To be noted: HepG2, t-BHP alone, FIG. 6.

In general, cell viability refers to a read-out of living cells in per cent, often relative to untreated cells. Turning to `O=C1C[C@@H](c2ccc(O[C@@H]3O[C@H](CO)[C@@H](O)[C@H](O)[C@H]3O)cc2)Oc2cc(O)ccc21` [liquiritin], the “expression of iNOS and COX2 (mRNA)” value in the series with iNOS, COX2 is “decreased the expression of iNOS and COX2 more strongly than glycyrrhizin”. Further, the “inhibition of hepatotoxicity induced by t-BHP” value (“inhibition … by t-BHP” for short) in series [1] is on record as “hepatotoxicity inhibition effects increased with the treatment concentration thereof”. Further, the cell viability in series [2] is recorded as ≥ 95%.

For `CC1(C)[C@@H](O[C@H]2O[C@H](C(=O)O)[C@@H](O)[C@H](O)[C@H]2O[C@@H]2O[C@H](C(=O)O)[C@@H](O)[C@H](O)[C@H]2O)CC[C@]2(C)[C@H]3C(=O)C=C4[C@@H]5C[C@@](C)(C(=O)O)CC[C@]5(C)CC[C@@]4(C)[C@]3(C)CC[C@@H]12` [glycyrrhizin], the “expression of inflammation-related cytokines (TNF-α, IL-1β, IL-6)” value in the series with TNF-α, IL-1β, IL-6 is “inhibited more strongly”. The “inhibition … by t-BHP” value in series [1] is “hepatotoxicity inhibition effects increased with the treatment concentration thereof”. Further, the cell viability in series [2] is ≥ 95%.

For the molecule `O=C1C[C@@H](c2ccc(O)cc2)Oc2cc(O)ccc21` [liquiritigenin], the “expression of iNOS and COX2 (mRNA)” value with iNOS, COX2 is listed as “also exhibited reduction effects”. Moreover, in series [3], the “inhibition of NO production by LPS” value is recorded as “greatest efficacy”. The “inhibition … by t-BHP” value in series [1] is “hepatotoxicity inhibition effects increased with the treatment concentration thereof”.

As for `CC(C)(C)OO` [t-BHP, t-butyl hydroperoxide], the “cell viability upon treatment with t-BHP” value in series [4] is “about 30%”.

The values above are taken from US11096979B2, “Pharmaceutical composition for preventing or treating liver diseases, containing licorice extract containing glycyrrhizin and liquiritin” (NOVAREX CO., LTD., priority 2016, dated 2021).
